Measurements: article PMC4598813 (Scientific Reports, 2015)

Experiments:
L2-2B1 cells = details: mouse
PrP^Sc in ScN2a cells = format: cell-based, mouse
ScN2a cells = details: mouse
total PrP in ScN2a cells = format: cell-based, mouse
PrP^Sc formation = details: cited from earlier work

CCN(CC)CCCC(C)Nc1c2ccc(Cl)cc2nc2ccc(OC)cc12 (centres unmarked) [Quinacrine]
concentration causing cytotoxicity (L2-2B1 cells): above 2 μM | PrP^Sc level (PrP^Sc in ScN2a cells): completely inhibited | concentration causing cytotoxicity (ScN2a cells): above 2 μM | total PrP level (total PrP in ScN2a cells): unaffected | optimal concentration found to inhibit PrP^Sc formation (PrP^Sc formation): below 4 μM
